Molecules are shown by their SMILES. Counter-ions that a name gives are not always drawn.

The target in assay [1] is T1, KRAS_G12D and cRAF (Homo sapiens, UniProt P01116, G12D).
T1 construct: purchased
The experiment in a line: Inhibition of KRAS_G12D/cRAF binding (Cisbio binding kit, 665/615 ratio), Effect Embodiment B. The conditions noted are these: read-out: GTP-KRAS-G12D:CRAF IC50. In outline: (§1)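 Test compounds were serially diluted 3-fold from the storage solution over 11 points and dispensed in duplicate wells at 1% final DMSO.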

The target in assay [2] is T2, KRAS_WT and SOS1 (Homo sapiens, UniProt P01116).
T2 construct: purchased
T2 sequence (P01116 1-188 isoform P01116-2): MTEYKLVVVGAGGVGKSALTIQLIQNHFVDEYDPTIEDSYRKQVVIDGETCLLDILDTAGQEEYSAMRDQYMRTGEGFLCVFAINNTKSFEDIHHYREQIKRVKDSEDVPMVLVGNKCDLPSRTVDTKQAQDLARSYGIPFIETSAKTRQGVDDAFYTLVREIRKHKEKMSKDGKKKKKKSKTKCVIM
The experiment in a line: Inhibition of KRAS_WT/SOS1 binding (Cisbio binding kit, 665/615 ratio), Effect Embodiment C. The conditions noted are these: read-out: GTP-KRAS-WT:SOS1 IC50. In outline: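 Compounds tested as 3-fold, 11-point dilutions in duplicate at 1% DMSO final against the KRAS_WT/SOS1 binding system. IC50 derived by nonlinear regression fit.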

Assay [3] addresses T3, KRAS-G12D and SOS1 (Homo sapiens, UniProt P01116, G12D).
T3 construct: purchased
The experiment in a line: Inhibition of KRAS-G12D/SOS1 binding (Cisbio binding kit, 665/615 ratio), Effect Embodiment A. The conditions noted are these: read-out: GTP-KRAS-G12D:SOS1 IC50. Summed up: as §1

T1 sequence (P01116 1-188 isoform P01116-2 G12D): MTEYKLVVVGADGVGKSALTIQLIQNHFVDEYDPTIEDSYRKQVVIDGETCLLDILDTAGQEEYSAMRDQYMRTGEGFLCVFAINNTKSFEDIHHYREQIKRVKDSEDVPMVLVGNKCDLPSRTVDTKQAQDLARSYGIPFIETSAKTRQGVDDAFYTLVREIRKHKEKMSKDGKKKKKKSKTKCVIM
T3 sequence (P01116 1-188 isoform P01116-2 G12D): as above

As to `C[C@@H](COc1nc(N2CC3CCC(C2)N3)c2cc(Cl)c(-c3cc(O)cc4ccc(F)cc34)c(F)c2n1)CN1C2CCC1COC2` (single isomer, unassigned) [Compound 234a, 4-((7S or 7R)-2-((2R)-3-(3-oxa-8-azabicyclo[3.2.1]octan-8-yl)-2-methylpropoxy)-4-((1R,5S)-3,8-diazabicyclo[3.2.1]octan-3-yl)-6-chloro-8-fluoroquinazolin-7-yl)-6-fluoronaphthalen-2-ol diformate], the IC50 in assay [1] was determined as 0.00579 µM; in assay [2] it was 0.2 µM; in assay [3], 0.0118 µM.
`NCCCOc1nc(N2CC3CCC(C2)N3)c2cc(Cl)c(-c3cc(O)cc4ccccc34)c(F)c2n1` (single isomer, unassigned) [Compound 94, 4-((S or R)-2-(3-aminopropoxy)-4-((1R,5S)-3,8-diazabicyclo[3.2.1]octan-3-yl)-6-chloro-8-fluoroquinazolin-7-yl)naphthalen-2-ol dihydrochloride]: the figures for the IC50 in assay [1], in assay [2] and in assay [3] were 0.164 µM, 5.22 µM and 0.0532 µM, respectively.
With `C[C@@H](COc1nc(N2CC3CCC(C2)N3)c2cc(Cl)c(-c3cc(O)cc4ccccc34)c(F)c2n1)CN1C[C@@H](C)O[C@H](C)C1` (single isomer, unassigned) [Compound 216, 4-((S or R)-4-((1R,5S)-3,8-diazabicyclo[3.2.1]octan-3-yl)-6-chloro-2-((R)-3-((2R,6R)-2,6-dimethylmorpholinyl)-2-methylpropoxy)-8-fluoroquinazolin-7-yl)naphthalen-ol diformate], the values for the IC50 in assay [1], in assay [2] and in assay [3] were 0.0494 µM, 2.02 µM and 0.0518 µM, respectively.
As to `C[C@@H]1C[C@@H](COc2nc(N3CC4CCC(C3)N4)c3cc(Cl)c(-c4cc(O)cc5ccccc45)c(F)c3n2)N(C)C1` (single isomer, unassigned) [Compound 171, (R or S)-4-(4-((1R,5S)-3,8-diazabicyclo[3.2.1]octan-3-yl)-6-chloro-2-((2S,4R)-1.4-dimethylpyrrolidin-2-yl)methoxy)-8-fluoroquinazolin-7-yl)naphthalen-2-ol dihydrochloride], the IC50 in assay [1] was found to be 0.0604 µM; in assay [2] it was 0.395 µM; in assay [3], 0.0248 µM.
In the case of `CN(C)C1CCC(Oc2nc(N3CC4CCC(C3)N4)c3cc(Cl)c(-c4cc(O)cc5ccccc45)c(F)c3n2)C1` (single isomer, unassigned) [Compound 70c, 4-((S or R)-4-((1R,5S)-3,8-diazabicyclo[3.2.1]octan-3-yl)-6-chloro-2-((1S,3S or 1R,3R)-3-(dimethylamino)cyclopentyl)oxy)-8-fluoroquinazolin-7-yl)naphthalen-2-ol dihydrochloride], the results for the IC50 in assay [1], in assay [2] and in assay [3] were 0.417 µM, 38.3 µM and 0.0741 µM, respectively.
On to `Oc1cc(Cl)c(C2CC2)c(-c2c(Cl)cc3c(N4CC5CCC(C4)N5)nc(OC[C@@]45CCCN4C[C@H](F)C5)nc3c2F)c1` (single isomer, unassigned) [Compound 198a, 3-((R or S)-4-((1R,5S)-3,8-diazabicyclo[3.2.1]octan-3-yl)-6-chloro-8-fluoro-2-((2R,7aS)-2-fluorotetrahydro-1H-pyrrolin-7a(5H)-yl)methoxy)quinazolin-7-yl)-5-chloro-4-cyclopropylphenol formate], for which the values for the IC50 in assay [1], in assay [2] and in assay [3] were 0.00611 µM, 0.0235 µM and 0.0114 µM, respectively.
In the case of `Oc1cc(-c2c(Cl)cc3c(N4CC5CCC(C4)N5)nc(OC[C@@H]4CCCN4CC4CC4)nc3c2F)c2ccccc2c1` [Compound 172, 4-(4-((1R,5S)-3,8-diazabicyclo[3.2.1]octan-3-yl)-6-chloro-2-((S)-1-(cyclopropylmethyl)pyrrolidin-2-yl)methoxy)-8-fluoroquinazolin-7-yl)naphthalen-2-ol dihydrochloride], the IC50 in assay [1] stood at 0.0627 µM; in assay [2] it was 0.658 µM; in assay [3], 0.0193 µM.
Taken in the same sequence, the figures for `Oc1cc(-c2c(Cl)cc3c(N4CC5CCC(C4)N5)nc(OCCCN4C5CCCC4COC5)nc3c2F)c2ccccc2c1` (single isomer, unassigned) [Compound 177, (R or S)-4-(2-(3-((1R,5S)-3-oxa-9-azabicyclo[3.3.1]nonan-9-yl)propoxy)-4-((1R,5S)-3,8-diazabicyclo[3.2.1]octan-3-yl)-6-chloro-8-fluoroquinazolin-7-yl)naphthalen-2-ol formate] were 0.121 µM, 1.19 µM and 0.0405 µM.
With `Oc1cc(-c2c(Cl)cc3c(N4CC5CCC(C4)N5)nc(OCC45CCCN4CCC5)nc3c2F)c2ccccc2c1` (single isomer, unassigned) [Compound 199, 4-((R or S)-4-((1R,5S)-3,8-diazabicyclo[3.2.1]octan-3-yl)-6-chloro-8-fluoro-2-((tetrahydro-1H-pyrrolin-7a(5H)-yl)methoxy)quinazolin-7-yl)naphthalen-2-ol diformate], the values for the IC50 in assay [1], in assay [2] and in assay [3] were 0.009 µM, 0.0584 µM and 0.0132 µM, respectively.
For `Oc1cc(-c2c(Cl)cc3c(N4CC5CCC(C4)N5)nc(OCCCN4CCCC4)nc3c2F)c2ccccc2c1` (single isomer, unassigned) [Compound 63a, 4-((S or R)-4-((1R,5S)-3,8-diazabicyclo[3.2.1]octan-3-yl)-6-chloro-8-fluoro-2-(3-(pyrrolidin-1-yl)propoxy)quinazolin-7-yl)naphthalen-2-ol], the IC50 is 0.134 µM in assay [1], 1.58 µM in assay [2] and 0.0178 µM in assay [3].
On to `Oc1cc(-c2c(Cl)cc3c(N4CC5CCC(C4)N5)nc(OCCN4CCCCC4)nc3c2F)c2ccccc2c1` (single isomer, unassigned) [Compound 114, 4-((S or R)-4-((1R,5S)-3,8-diazabicyclo[3.2.1]octan-3-yl)-6-chloro-8-fluoro-2-(2-(piperidin-1-yl)ethoxy)quinazolin-7-yl)naphthalen-2-ol dihydrochloride], for which the IC50 in assay [1] was determined as 0.1 µM; in assay [2], 4.53 µM; in assay [3], 0.0372 µM.
Consider `Oc1cc(Cl)c(C2CC2)c(-c2c(Cl)cc3c(N4CC5CCC(C4)N5)nc(OC[C@@]45CCCN4C[C@H](F)C5)nc3c2F)c1` (single isomer, unassigned) [Compound 198b, 3-((S or R)-4-((1R,5S)-3,8-diazabicyclo[3.2.1]octan-3-yl)-6-choro-8-fluoro-2-((2R,7aS)-2-fluorotetrahydro-1H-pyrrolin-7a(5H)-yl)methoxy)quinazolin-7-yl)-5-chloro-4-cyclopropylphenol formate], for which the results for the IC50 in assay [1], in assay [2] and in assay [3] were 0.0385 µM, 0.105 µM and 0.0541 µM, respectively.
Consider `N=C(N)NCCCOc1nc(N2CC3CCC(C2)N3)c2cc(Cl)c(-c3cc(O)cc4ccccc34)c(F)c2n1` (single isomer, unassigned) [Compound 150, 1-(3-((4-((1R,5S)-3,8-diazabicyclo[3.2.1]octan-3-yl)-6-chloro-8-fluoro-7-((S or R)-3-hydroxynaphthalen-1-yl)quinazolin-2-yl)oxy)propyl)guanidine diformate], for which the IC50 was determined as 0.114 µM in assay [1], 2.04 µM in assay [2] and 0.0392 µM in assay [3].
Take `Oc1cc(-c2c(Cl)cc3c(N4CC5CCC(C4)N5)nc(OCCCN4CC5CCC4CO5)nc3c2F)c2ccccc2c1` (single isomer, unassigned) [Compound 187b, (R or S)-4-(2-(3-((1R,4R or 1S,4S)-2-oxa-5-azabicyclo[2.2.2]octan-5-yl)propoxy)-4-((1R,5S)-3,8-diazabicyclo[3.2.1]octan-3-yl)-6-chloro-8-fluoroquinazolin-7-yl)naphthalen-2-ol diformate]: the IC50 in assay [1] was found to be 0.115 µM; in assay [2] it was 1.67 µM; in assay [3] it was 0.0277 µM.
On to `CN1CC2(CC2)C[C@H]1COc1nc(N2C[C@H]3CC[C@@H](C2)N3)c2cc(Cl)c(-c3cc(O)cc4ccccc34)c(F)c2n1` (single isomer, unassigned) [Compound 167, (R or S)-4-(4-((1R,5S)-3,8-diazabicyclo[3.2.1]octan-3-yl)-6-chloro-8-fluoro-2-(((S)-5-methyl-5-azaspiro[2.4]heptan-6-yl)methoxy)quinazolin-7-yl)naphthalen-2-ol dihydrochloride], for which the IC50 was 0.0195 µM in assay [1], 0.248 µM in assay [2] and 0.0179 µM in assay [3].
Taken in the same sequence, the figures for `CCC(COc1nc(N2CC3CCC(C2)N3)c2cc(Cl)c(-c3cc(O)cc4ccccc34)c(F)c2n1)CN1C2CCC1COC2` (single isomer, unassigned) [Compound 201a, (4S or 4R)-4-(2-((2R or 2S)-2-(3-oxa-8-azabicyclo[3.2.1]octan-8-ylmethyl)butoxy)-4-((1R,5S)-3,8-diazabicyclo[3.2.1]octan-3-yl)-6-chloro-8-fluoroquinazolin-7-yl)naphthalen-2-ol formate] were 0.0232 µM, 1.04 µM and 0.029 µM.
Turning to `CO[C@@H]1C[C@@H](COc2nc(N3CC4CCC(C3)N4)c3cnc(-c4cc(O)cc5ccccc45)c(F)c3n2)N(C)C1` [Compound 134, 4-(4-((1R,5S)-3,8-diazabicyclo[3.2.1]octan-3-yl)-8-fluoro-2-((2S,4R)-4-methxoy-1-methylpyrrolidin-2-yl)methoxy)pyridinyl[4,3-d]pyrimidin-7-yl)naphthalen-2-ol diformate], the values for the IC50 in assay [1], in assay [2] and in assay [3] were 0.0262 µM, 0.498 µM and 0.0179 µM, respectively.

As a reminder, the IC50 is the concentration at which inhibition is half-maximal.

Source of the values: patent publication US20230365563A1, “QUINAZOLINE COMPOUND AND APPLICATION THEREOF” (SHANGHAI PHARMACEUTICALS HOLDING CO., LTD., priority 2020, published 2023).
